The values below come from patent US7678386B2, “Liposomes coated with selected antibodies that bind to aminophospholipids” (Board of Regents the University of Texas, priority 2002, dated 2010).

Where only a bound is given, the exact number is not on record here.

Assay [1] in a line: Anti-PS ELISA on PS-coated plates. It is filed as binding. The method, then: The anti-PS ELISA used in the present studies is conducted as follows. Unless particular differences are specified, this is the format of the ELISA used throughout the studies of the present application.
The ELISA is exemplified using the antigen PS (P-6641 25 mg 10 mg/ml (solvent is Chloroform:MeOH 95:5) in 2.5 ml bottle). Other phospholipids can be used using the same protocol. The PS (or other phospholipids) stock solution should be aliquoted and stored in an airtight container at −30° C. The preferred 96 well plates are Dynatech U bottom Immulon 1 (from Dynatech Labs. Cat# 011-010-3550).
The standard blocking buffer used herein is 10% bovine serum dissolved in PBS. Other blocking solutions are suitable, but any detergents should be excluded from block and wash solutions. The primary antibody is the test sample or admixture. The preferred secondary antibody is goat, anti-mouse IgG-HRP. The developing solutions are: 10 ml of 0.2 M Na2PO4, 10 ml of 0.1 M citric acid, one 10 mg tablet of OPD, and 10 μl of hydrogen peroxide. The stop solution is 0.18 M H2SO4.
(§1) The protocol entails coating 96-well plate with PS as follows: dilute the PS stock solution in n-hexane to 10 μg/ml and mix well. Add 50 μl to each well and allow this to evaporate for one hour. Add 200 μl of 10% serum (or other blocking buffer) to each well, cover and maintain at room temperature for 2 hours or overnight at 4° C. Wash the plate three times with PBS. Add the primary antibody (dilute in blocking buffer) and incubate for 2 hours at 37° C. Wash three times with PBS. Add 100 μl/well of secondary antibody (typically goat. anti-mouse IgG-HRP or other appropriate secondary antibody) and incubate for 1 hour at 37° C. Wash the plate three times with PBS. Develop the ELISA by adding 100 μl of developing solution to each of the wells, develop for 10 minutes, then add 100 μl of stop solution to each plate and read the O.D. at 490 nm.
(In general: ELISA stands for enzyme-linked immunosorbent assay.)

Assay [2] is described as follows: ELISA on plates coated with phospholipids (specificity). It is filed as binding. Particulars: identical antibody concentration. The method, then: as §1
The specificity of the antibodies was determined by ELISA using plates coated with the following phospholipids: PS, phosphatidylserine; PE, phosphatidylethanolamine; PI, phosphatidylinositol: PA. phosphatidic acid; PG, phosphatidylglycerol; PC, phosphatidylcholine: CL, cardiolipin; and SM, sphingomyelin.
The 1B9, 2G7 and 7C5 antibodies behave essentially the same. These antibodies recognize only PS and require serum or serum proteins for binding to PS. […]

Assay [3] can be described thus: Reactivity with plastic-immobilized phospholipids (ELISA), panel. It is filed as binding. The method, then:
(§2) Phospholipids were dissolved in n-hexane to a concentration of 50 μg/ml. 100 μl of this solution was added to wells of 96-well microtiter plates. After evaporation of the solvent in air, the plates were blocked for 2 h with 10% fetal bovine serum diluted in DPBS containing 2 mM Ca^2+ (binding buffer).
(§3) 9D2 antibody or annexin V were diluted in the binding buffer in the presence of 10% serum at an initial concentration of 6.7 nM. Serial two-fold dilutions were prepared in the plates (100 μl per well). The plates were then incubated for 2 h at room temperature. The plates were washed and the 9D2 and annexin V were detected by goat anti-rat IgM conjugated to HRP and rabbit anti-human annexin V followed by goat anti-rabbit IgG conjugated to HRP (all diluted 1:1000), respectively. Secondary reagents were detected by using chromogenic substrate OPD followed by reading plates at 490 nm using a microplate reader (Molecular Devices, Palo Alto, Calif.).
(§4) The specificity of the 9D2 antibody binding was validated by using control rat IgM of irrelevant specificity (Pharmingen, San Diego, Calif.). The specificity of annexin V binding to phospholipids, which is Ca^2+-dependent, was determined by diluting the reagent in the DPBS containing 5 mM EDTA. Additional negative controls consisted of washing the plates with the binding buffer containing 0.2% of a detergent Tween 20. This treatment extracts lipids, thus removing the phospholipid that was absorbed to plastic. Neither 9D2 antibody nor annexin V bound to detergent-washed plates.

The nature of assay [4]: Reactivity with plastic-immobilized phospholipid (ELISA). The following applies: read-out: EC50 of binding. The method, then: as §2, §3, §4
Assay [5] concerns Factor Xa generation on IL-1α-stimulated bEnd.3 cells. The experiment in a line: Factor Xa formation induced by coaguligand (chromogenic assay). It is filed as cell-based, mouse. The following applies: 10 μg per ml. The method, then: The ability of Annexin V to affect Factor Xa formation induced by coaguligand was determined by a chromogenic assay. IL-1α-stimulated bEnd.3 cells were incubated with anti-VCAM-•tTF and permeabilized by saponin. Annexin V was added at concentrations ranging from 0.1 to 10 μg/ml and cells were incubated for 30 min. before addition of diluted Proplex T. The amount of Factor Xa generated in the presence or absence of Annexin V was determined. Each treatment was performed in duplicate and repeated at least twice.

A word on the EC50: it is the concentration that produces a half-maximal response. As to “Annexin V: high affinity PS binding ligand; natural ligand of anionic phospholipids and PE”, the 50% effective concentration (EC50) in assay [1] (MW used for conversion: IgM 900 kDa, IgG 150 kDa, Annexin V 36 kDa, read-out: EC50) is 2770 pM; in assay [1] (dilutions of tissue culture supernatants), 0.100 µg/mL; in assay [4] (CL) it was 130 pM; in assay [4] (PA) it was 100 pM; in assay [4] (PC), greater than 8000 pM; in assay [4] (PE), 100 pM. The EC50 in assay [4] (PG) was 250 pM; in assay [4] (PI), 50 pM; in assay [4] (PS) it was 100 pM; in assay [4] (SM) it was greater than 8000 pM. The “Affinity vs. 3SB (-fold increased)” value in assay [1] (from EC50 in nM) was 0.18 -fold. Also, the “Binding vs. 3SB (-fold increased)” value in assay [1] (from EC50 in μg/ml) is on record as 4.68 -fold. The “Relative Strength of Reactivity on ELISA” value in assay [2] is recorded as “PS = PE = PI = PA > CL > PG”. In addition, in assay [3], the “binding to anionic phospholipids in the presence of 5 mM EDTA” value is listed as “abolished”. Further, the “binding to heparin, heparan sulfate or double or single stranded DNA” value in assay [3] is reported as “did not bind detectably”. Moreover, the “order of strength of binding to phospholipids in ELISA” value in assay [3] (10% serum) is on record as “PI>PS=PE=PA=CL>PG”. Also, the “inhibition of factor Xa production” value in assay [5] was 58%.
